Active and inactive are the calls of the source. The rule behind the calls is not given here.
Legend:
[1] = test system: Human immunodeficiency virus 1; experiment: Binding affinity to HIV1 integrase assessed as induction of cross-linking at peptide region 164ELK166 at 7.5 to 25 uM in presence of UV illumination for 15 mins in presence of trypsin by LC-MS analysis; conditions: dose microM 7.5-25, time 15.0 min
[2] = test system: Human immunodeficiency virus 1; experiment: Binding affinity to HIV1 integrase assessed as conjugation of enzyme at 7.5 to 25 uM in presence of UV illumination for 15 mins by SDS-PAGE analysis based photoaffinity labelling method; conditions: dose microM 7.5-25, time 15.0 min
[3] = test system: Human immunodeficiency virus 1; experiment: Binding affinity to HIV1 integrase assessed as induction of enzyme molecular weight shift at 7.5 to 25 uM in presence of UV illumination for 15 mins by LC-MS analysis; conditions: dose microM 7.5-25, time 15.0 min
[4] = test system: Human immunodeficiency virus 1; experiment: Binding affinity to HIV1 integrase assessed as induction of cross-linking at peptide region 42EIVASCDK49 at 7.5 to 25 uM in presence of UV illumination for 15 mins in presence of trypsin by LC-MS analysis; conditions: dose microM 7.5-25, time 15.0 min
[5] = Inhibition of HIV1 integrase assessed as reduction in LEDGF-independent integration pre-incubated for 1 hr before addition of DNA donor and acceptor substrate and measured after 90 mins by HTRF assay; design: species or system Human immunodeficiency virus 1

Activity [1] | Activity [2] | Activity [3] | Activity [4] | IC50 [5] [nM] | SMILES
Active | Active | Active | Active | 2300 | CC(C)c1nc(C(=O)NCc2ccc(C(=O)c3ccccc3)cc2)c(O)c(=O)n1C
 |  |  |  | 73000 | CC(C)c1nc(C(=O)O)c(O)c(=O)n1C
 |  |  |  | 58 | Cc1nnc(C(=O)NC(C)(C)c2nc(C(=O)NCc3ccc(F)cc3)c(O)c(=O)n2C)o1 [RALTEGRAVIR]

Reference: ChEMBL document CHEMBL4725446, “Development of a Raltegravir-based Photoaffinity-Labeled Probe for Human Immunodeficiency Virus-1 Integrase Capture” (ACS Med Chem Lett, 2020)
